Here are results for two compounds from patent US20150018417A1, “FATTY ACIDS AS ANTI-INFLAMMATORY AGENTS” (University of Pittsburgh - Of the Commonwealth System of …, priority 2012, published 2015).

For one experiment, the target named is GAPDH (Oryctolagus cuniculus, UniProt P46406). The experiment is described as follows: In vitro alkylation of GAPDH, mass spectrometric analysis. The experiment is classed as biochemical, rabbit. The source says: FIG. 21 illustrates the mass spectrometric analysis of an in vitro reaction of GAPDHvith EFAD-2. Four residues were detected and confirmed-as being targets for EfAD-2 in treated rabbit GAPDH. The peptides were alkylated as Cys244 (a), His163 (b), Cys149 (c) and His328 (d). Upper panels show EFAD-2 modified peptides and lower panels show spectra from corresponding native peptide.
To more specifically test the binding of EFADs to nucleophilic residues in proteins, we tested whether GAPDH was alkylated by EFADs. This enzyme is a well-characterized target for electrophiles and becomes easily inactivated by nitrosylation, oxidation or nucleophilic addition.

For experiment [1], the system named is inducible nitric oxide synthase (iNOS). Briefly: iNOS induction and nitrite accumulation in bone marrow-derived macrophages. The experiment is classed as cell-based, C57BL/6 mice. Conditions: BMDMs activated with Kdo2 and IFNγ. Here is the method:
FIG. 24 illustrates that 17-oxoDHA and 7-oxoDPA modulate the inflammatory response. in bone marrow-derived macrophages. Cells were treated with increasing concentration of 17-oxoDHA and 17oxoDPA for 6 h and Kdo2 Lipid A (0.5 μg/ml) and IFNγ were added. Samples were collected at 12 h. (2) Nitrite levels were measured in the cell media and normalized to the total protein content: iNOS and COX-2 levels were measured in total cell lystaes. (b) IL-6, MCP-I, and IL-10 levels were measured in cell media and normalized to the total protein content.
(§1) Bone marrow derived macrophages were isolated from C57BL/6 mice according to the protocol developed by Davies. See Davies, J. Q. & Gordon, S. Isolation and culture of murine macrophages. Methods Mol Biol 290, 91-103 (2005).
Protein concentrations of samples were measured by BCA assay (Pierce). The following primary antibodies were used: Nrf2 (Santa Cruz, sc-722), HO—I (Assay Design, SPA-896), Nqol (Abeam, ab34173), Cox-2 (Santa Cruz, sc-1745), iNOS (BD Transduction Lab, 610332), Lamin Bl (Abeam, ab16048). Actin (detected by Sigma A2066) was used as loading control. Secondary antibodies were purchased from Santa Cruz Biotechnology.
(§2) Total nitrite and nitrate concentration was measured in cell culture media by Griess reaction using the Nitrate/Nitrite Colorimetric Assay Kit (Cayman Chemical).

Another experiment concerns NF-κB and Stat-1. The experiment is described as follows: p65 nuclear translocation and DNA binding, Stat1 phosphorylation. The experiment is classed as cell-based, murine. Conditions: RAW264.7. The source says: The expression of iNOS and the analyzed pro-inflammatory cytokines is dependent on the activity of NF-κB and Stat-1. It has been reported that electrophilic lipids can repress the activation of these transcriptional factors either by direct adduction to the DNA binding domain of the NF-K B subunit p65 and to the inhibitor IκBα or via indirect mechanisms.

The next experiment concerns RAW264.7 cells. Briefly: EFAD formation in activated RAW264.7 cells treated with inhibitors. It is filed as cell-based, murine.
For experiment [2], the system named is inducible nitric oxide synthase (iNOS). The experiment is described as follows: iNOS induction and nitrite accumulation in activated RAW264.7 cells. The experiment is classed as cell-based, murine. Conditions: RAW264.7 activated with Kdo2 and IFNγ. On the procedure: FIG. 11 illustrates modulation of anti-oxidant and inflammatory responses by 17-oxoDHA and 17-oxoDPA. RAW264.7 cells were treated with increasing concentration of 17-oxoDHA and 17-oxoDPA. (a) Cells were harvested 1 h after treatment and Nrf2 levels were quantified in nuclear extracts, (b) Cells were harvested 18 h after treatment and HO—I and Nqol (upper band) levels were measured by western blot, (c, d) RAW264.7 cells were treated with increasing concentration of 17-oxoDHA and 17-oxoDP A for 6 h and Kdo2+IFNγ were added. Samples were collected at 12 h. IL-6, MCP-I and IL-IO levels were measured in the cell media by Quantikine ELISA Kit (R&D Systems) and normalized by the total protein content (c); Nitrite levels were measured in the cell media and normalized by the total protein content and iNOS and Cox-2 levels were measured in total cell lysates (d); (e) PPARγ beta-lactamase reporter assays were performed for Rosiglitazone, 17-OxoDPA, 17-OxoDHA, 15d-PGJ2, 17-hydroxyDHA, DPA, and DHA with concentrations ranging from 0.5-10,000 nM.
For activation experiments RAW 264.7 cells were seeded, incubated overnight, and treated at approximately 80% confluence with the indicated compounds 47. Non-activated controls were treated with vehicle alone. During activation, cells were maintained in an activation medium (SMEM) of Minimum Essential Medium Eagle (Cellgro, 17-305)+2% FBS supplemented with L-glutamine (584 mg/L), Na-pyruvate (110 mg/L) and Hepes (3.57 g/L, pH 7.4). For inhibition studies, inhibitors were added to the medium at the time of activation and MTT assays were used to confirm cell viability. Cells were harvested 20 h post activation (unless otherwise indicated) in 50 mM phosphate buffer (pH 7.4) and snap frozen in liquid N2. […]
Protein concentrations of samples were measured by BCA assay (Pierce). […] Actin (detected by Sigma A2066) was used as loading control. […]
as §2

The target in another experiment is T1, Purified ovine COX-2 (Ovis aries, UniProt P79208).
T1 construct: Ovine placental COX-2 (Cayman 60120) was also from Cayman Chemicals; purchased Cayman Chemicals 60120; host or cells: ovine placenta
T1 sequence (P79208 17-603): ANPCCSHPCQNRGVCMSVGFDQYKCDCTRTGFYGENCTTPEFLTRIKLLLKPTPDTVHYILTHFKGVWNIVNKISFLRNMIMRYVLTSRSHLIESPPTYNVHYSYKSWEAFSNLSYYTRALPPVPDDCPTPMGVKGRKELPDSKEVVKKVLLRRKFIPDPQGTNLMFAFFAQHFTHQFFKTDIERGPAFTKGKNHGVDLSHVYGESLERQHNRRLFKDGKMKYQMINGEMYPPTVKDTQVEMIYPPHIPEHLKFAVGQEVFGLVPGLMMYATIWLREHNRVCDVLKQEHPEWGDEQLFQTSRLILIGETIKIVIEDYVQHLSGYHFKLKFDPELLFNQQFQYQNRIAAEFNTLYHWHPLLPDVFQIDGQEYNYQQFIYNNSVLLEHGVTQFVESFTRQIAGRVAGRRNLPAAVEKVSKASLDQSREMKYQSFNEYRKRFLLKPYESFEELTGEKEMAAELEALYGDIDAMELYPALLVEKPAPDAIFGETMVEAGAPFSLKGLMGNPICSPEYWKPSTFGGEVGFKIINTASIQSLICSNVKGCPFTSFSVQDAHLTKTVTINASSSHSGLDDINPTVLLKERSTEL
The experiment is described as follows: COX-2 reaction with DPA ± ASA, OH-DPA formation. The experiment is classed as biochemical. Conditions: ovine COX-2 + DPA 10 μM ± 2 mM ASA. Here is the method:
The results of the COX-2 inhibition study implicate a the involvement of COX-2 in EFAD formation and motivated the development of an in vitro model of enzymatic EFAD synthesis. Purified ovine COX-2 was used to generate the EFAD-2 precursor (OH-DPA), (FIG. 7c-e), while the EFAD-I precursor, hydroxy-DHA (OH-DHA), was produced from DHA by COX-2 (FIGS. 19a and 19b).
Ovine placental COX-2 (20 U/ml) was preincubated in Tris/heme/phenol (THP) buffer ±2 mM ASA at 37° C. THP buffer, freshly prepared before each reaction, consisted of Tris*C1 (100 mM, pH 8.1), hematin (1 μM), and phenol (1 μM). The reaction was initiated by addition of the indicated fatty acids at a concentration of 10 μM. Reactions were terminated at the indicated time points by addition of ice-cold acetonitrile (9× reaction volume) and COX-2 protein was removed by centrifugation. Product formation was monitored by RP-HPLC-MS/MS in multiple reaction monitoring (MRM) mode following the loss Of CO2 (m/z 345/301 and m/z 343/299 for OH-DPA and OH-DHA, respectively).

The subject of experiment [3] is bone marrow-derived macrophage (BMDM) cells. Briefly: EFAD formation in activated bone marrow-derived macrophages. It is filed as cell-based, C57BL/6 murine. Conditions: BMDM activated with Kdo2 and IFNγ. On the procedure: FIG. 8 illustrates formation of EFAD in activated primary murine macrophages. Bone marrow derived macrophages were activated with Kdo2 (0.5 μg/ml) and IFNγ (200 U/ml) and EFADs were detected 1O h post activation.
as §1
EFADs are produced by primary macrophages isolated from mouse bone marrow. […] Thus, C57BL/6 murine primary hematopoietic stem cells were differentiated to macrophages, activated with Kdo2 and IFNγ and analyzed for the formation of EFADs. Five out of the six EFAD species (EFAD-I, 2, -3, -5 and -6) were observed which co-eluted with those produced by RAW 264.7 cells and with the available standards.

GAPDH, sequence (P46406 whole entry): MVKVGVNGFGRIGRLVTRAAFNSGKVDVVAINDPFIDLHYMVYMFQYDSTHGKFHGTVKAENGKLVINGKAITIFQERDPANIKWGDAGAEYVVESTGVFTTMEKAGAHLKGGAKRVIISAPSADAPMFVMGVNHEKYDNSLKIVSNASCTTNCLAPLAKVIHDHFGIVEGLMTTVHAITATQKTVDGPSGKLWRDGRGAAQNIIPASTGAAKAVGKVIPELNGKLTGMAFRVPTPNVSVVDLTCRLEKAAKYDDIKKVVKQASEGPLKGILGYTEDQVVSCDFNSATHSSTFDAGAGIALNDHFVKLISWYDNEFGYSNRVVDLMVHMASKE

Regarding `CCC=CCC=CC=CC(=O)CC=CCC=CCCCCCC(=O)O` (mixture of isomers) [EFAD-2], the “adduct formation with GAPDH residues” value at GAPDH is “readily formed adducts with Cys244, Cys149, His 163 and His328”. For the same compound, the “iNOS induction and accumulation of nitrite in the cell media” value in experiment [1] was “strongly and dose-dependently repressed”; in experiment [2], “strongly and dose-dependently repressed”. In addition, the “p65 nuclear translocation and DNA binding, Stat1 phosphorylation” value in the experiment with NF-κB and Stat-1 is recorded as “did not affect”. In addition, the “EFAD level +Celecoxib (↓COX)” value in the experiment with RAW264.7 cells (RAW264.7 activated with Kdo2 and IFNγ, 20 h post activation) is on record as “↓”. Also, the “EFAD level +Aspirin (↓COX)” value with RAW264.7 cells (RAW264.7 activated with Kdo2 and IFNγ, ASA 200 μM, 20 h post activation) is listed as “↑”. Also, the “EFAD level +ETYA (↓COX)” value in the experiment with RAW264.7 cells (RAW264.7 activated with Kdo2 and IFNγ, ETYA 25 μM, 20 h post activation) is listed as “↓”. The “EFAD level +MAFP (↓PLA2)” value in the experiment with RAW264.7 cells (RAW264.7 activated with Kdo2 and IFNγ, MAFP 25 μM, 20 h post activation) is recorded as “↓”. Moreover, in the experiment with RAW264.7 cells (RAW264.7 activated with Kdo2 and IFNγ, diclofenac 1 μM, 20 h post activation), the “EFAD level +Diclofenac (↓COX)” value is reported as “↓”. The “EFAD level +Genisteine” value in the experiment with RAW264.7 cells (RAW264.7 activated with Kdo2 and IFNγ, genistein 25 μM, 20 h post activation) is recorded as “↓”. For the same compound, in the experiment with RAW264.7 cells (RAW264.7 activated with Kdo2 and IFNγ, ibuprofen 100 μM, 20 h post activation), the “EFAD level +Ibuprofen (↓COX)” value was “↓”. The “EFAD level +Indomethacin (↓COX)” value with RAW264.7 cells (RAW264.7 activated with Kdo2 and IFNγ, indomethacin 25 μM, 20 h post activation) is recorded as “↓”.

Regarding `CC(=O)Oc1ccccc1C(=O)O` [ASA, acetyl salicylic acid], the “rate and extent of formation of OH-DPA” value at Purified ovine COX-2 was “increased the rate and extent of formation”. For the same compound, the “extent of EFAD formation with ASA” value in experiment [3] is given as “increased about two to three fold”. Moreover, the “increase of EFAD formation” value in the experiment on RAW264.7 cells (ASA 200 μM, all EFADs except EFAD-4 and EFAD-6) was “about 2.5 fold”.
